According to PubChem BioAssay AID248 (DTP/NCI, 2004):
Where “and” joins values, the source holds several entries; their conditions need not be identical. Identical values can stand only once. Toxic doses and inconclusive results are not listed. Rule as the data show it: active = T/C of 150% or more; inactive = T/C below 125%.

Tested on: L1210 leukemia ip in BDF1 mice, survival T/C
Test: NCI In Vivo Anticancer Drug Screen. Data for tumor model L1210 Leukemia (intraperitoneal) in B6D2F1 (BDF1) mice
Details: endpoint: mean survival time, higher = longer survival
Method in brief: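 Tumor cells were implanted, animals were treated, and survival was followed. The result divides the treated measurement by the vehicle-control measurement.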

[1] = dose: 100.0 mg/kg/injection, schedule: Q01DX009 (ip), vehicle: Klucel (hydroxypropylcellulose) (HPC)
[2] = dose: 100.0 mg/kg/injection, schedule: Q04DX003 (ip), vehicle: other

Measured: T/C

Cc1c(O)ccc(=O)n1O
inactive: dose: 10.4 mg/kg/injection, schedule: Q03HX024 (ip), vehicle: Klucel (hydroxypropylcellulose) (HPC) 97 % of control | dose: 12.0 mg/kg/injection, schedule: Q01DX009 (ip), vehicle: Klucel (hydroxypropylcellulose) (HPC) 107 % of control | dose: 15.6 mg/kg/injection, schedule: Q03HX024 (ip), vehicle: Klucel (hydroxypropylcellulose) (HPC) 96 % of control | dose: 22.8 mg/kg/injection, schedule: Q03HX024 (ip), vehicle: Klucel (hydroxypropylcellulose) (HPC) 93 % of control | dose: 24.0 mg/kg/injection, schedule: Q01DX009 (ip), vehicle: Klucel (hydroxypropylcellulose) (HPC) 102 % of control | dose: 34.8 mg/kg/injection, schedule: Q03HX024 (ip), vehicle: Klucel (hydroxypropylcellulose) (HPC) 98 % of control | dose: 48.0 mg/kg/injection, schedule: Q01DX009 (ip), vehicle: Klucel (hydroxypropylcellulose) (HPC) 107 % of control | dose: 49.0 mg/kg/injection, schedule: Q01DX Z (ip), vehicle: carboxymethylcellulose (CMC) 109 % of control | dose: 49.0 mg/kg/injection, schedule: Q01DX Z (ip), vehicle: methylcellulose (MC) 100 % of control and 110 % of control | dose: 52.0 mg/kg/injection, schedule: Q01DX009 (ip), vehicle: Klucel (hydroxypropylcellulose) (HPC) 103 % of control | dose: 52.0 mg/kg/injection, schedule: Q03HX024 (ip), vehicle: Klucel (hydroxypropylcellulose) (HPC) 100 % of control and 105 % of control | dose: 62.0 mg/kg/injection, schedule: Q03HX024 (ip), vehicle: saline with Tween-80 92 % of control | dose: 73.0 mg/kg/injection, schedule: Q01DX Z (ip), vehicle: carboxymethylcellulose (CMC) 111 % of control | dose: 73.0 mg/kg/injection, schedule: Q01DX Z (ip), vehicle: methylcellulose (MC) 93 % of control | dose: 89.0 mg/kg/injection, schedule: Q01DX001 (ip), vehicle: carboxymethylcellulose (CMC) 106 % of control | dose: 96.0 mg/kg/injection, schedule: Q03HX024 (ip), vehicle: Klucel (hydroxypropylcellulose) (HPC) 100 % of control | dose: 100.0 mg/kg/injection, schedule: Q01DX001 (ip), vehicle: carboxymethylcellulose (CMC) 113 % of control | dose: 100.0 mg/kg/injection, schedule: Q01DX001 (ip), vehicle: saline 112 % of control | [1] 115 % of control | dose: 100.0 mg/kg/injection, schedule: Q04DX003 (ip), vehicle: acetone 108 % of control | dose: 104.0 mg/kg/injection, schedule: Q01DX001 (ip), vehicle: Klucel (hydroxypropylcellulose) (HPC) 103 % of control | dose: 104.0 mg/kg/injection, schedule: Q04DX003 (ip), vehicle: Klucel (hydroxypropylcellulose) (HPC) 95 % of control | dose: 110.0 mg/kg/injection, schedule: Q01DX Z (ip), vehicle: methylcellulose (MC) 94 % of control | dose: 110.0 mg/kg/injection, schedule: Q01DX Z (ip), vehicle: saline 102 % of control | dose: 125.0 mg/kg/injection, schedule: Q03HX024 (ip), vehicle: saline with Tween-80 102 % of control | dose: 156.0 mg/kg/injection, schedule: Q01DX001 (ip), vehicle: Klucel (hydroxypropylcellulose) (HPC) 97 % of control | dose: 156.0 mg/kg/injection, schedule: Q04DX003 (ip), vehicle: Klucel (hydroxypropylcellulose) (HPC) 103 % of control | dose: 165.0 mg/kg/injection, schedule: Q01DX Z (ip), vehicle: methylcellulose (MC) 122 % of control | dose: 165.0 mg/kg/injection, schedule: Q01DX Z (ip), vehicle: saline 104 % of control | dose: 200.0 mg/kg/injection, schedule: Q01DX001 (ip), vehicle: carboxymethylcellulose (CMC) 112 % of control | dose: 200.0 mg/kg/injection, schedule: Q01DX001 (ip), vehicle: saline 107 % of control | dose: 200.0 mg/kg/injection, schedule: Q01DX009 (ip), vehicle: Klucel (hydroxypropylcellulose) (HPC) 108 % of control | dose: 200.0 mg/kg/injection, schedule: Q04DX003 (ip), vehicle: acetone 107 % of control | dose: 228.0 mg/kg/injection, schedule: Q01DX001 (ip), vehicle: Klucel (hydroxypropylcellulose) (HPC) 101 % of control | dose: 228.0 mg/kg/injection, schedule: Q04DX003 (ip), vehicle: Klucel (hydroxypropylcellulose) (HPC) 98 % of control | dose: 300.0 mg/kg/injection, schedule: Q01DX001 (ip), vehicle: carboxymethylcellulose (CMC) 112 % of control | dose: 348.0 mg/kg/injection, schedule: Q01DX001 (ip), vehicle: Klucel (hydroxypropylcellulose) (HPC) 108 % of control | dose: 348.0 mg/kg/injection, schedule: Q04DX003 (ip), vehicle: Klucel (hydroxypropylcellulose) (HPC) 104 % of control | dose: 400.0 mg/kg/injection, schedule: Q01DX001 (ip), vehicle: carboxymethylcellulose (CMC) 111 % of control | dose: 400.0 mg/kg/injection, schedule: Q01DX001 (ip), vehicle: saline 104 % of control | dose: 400.0 mg/kg/injection, schedule: Q01DX009 (ip), vehicle: Klucel (hydroxypropylcellulose) (HPC) 104 % of control | dose: 400.0 mg/kg/injection, schedule: Q04DX003 (ip), vehicle: acetone 103 % of control | dose: 520.0 mg/kg/injection, schedule: Q01DX001 (ip), vehicle: Klucel (hydroxypropylcellulose) (HPC) 106 % of control
active: dose: 110.0 mg/kg/injection, schedule: Q01DX Z (ip), vehicle: carboxymethylcellulose (CMC) 151 % of control | dose: 165.0 mg/kg/injection, schedule: Q01DX Z (ip), vehicle: carboxymethylcellulose (CMC) 152 % of control

O=C1C=C(C(=O)O)CO1
inactive: [1] 95 % of control

CC(CO)CCCC(C)C1CCC2C3CCC4CC(O)CCC4(C)C3CCC12C (stereo not given)
inactive: dose: 100.0 mg/kg/injection, schedule: Q01DX001 (ip), vehicle: saline with Tween-80 95 % of control | dose: 200.0 mg/kg/injection, schedule: Q01DX001 (ip), vehicle: saline with Tween-80 87 % of control | dose: 400.0 mg/kg/injection, schedule: Q01DX001 (ip), vehicle: saline with Tween-80 90 % of control

Cc1cccc(C)c1N(N=O)C(=O)c1ccccc1
inactive: dose: 75.0 mg/kg/injection, schedule: Q01DX001 (ip), vehicle: saline 98 % of control | dose: 150.0 mg/kg/injection, schedule: Q01DX001 (ip), vehicle: saline 98 % of control

O=C(CC(O)(C(F)(F)F)C(F)(F)F)c1c2ccccc2cc2ccccc12
inactive: dose: 100.0 mg/kg/injection, schedule: Q01DX009 (ip), vehicle: saline with Tween-80 98 % of control | dose: 200.0 mg/kg/injection, schedule: Q01DX009 (ip), vehicle: saline with Tween-80 109 % of control | dose: 400.0 mg/kg/injection, schedule: Q01DX009 (ip), vehicle: saline with Tween-80 98 % of control

O=C(O)c1ccc[n+](Cc2ccccc2)c1
inactive: dose: 75.0 mg/kg/injection, schedule: Q04DX003 (ip), vehicle: saline 90 % of control | dose: 150.0 mg/kg/injection, schedule: Q04DX003 (ip), vehicle: saline 97 % of control | dose: 300.0 mg/kg/injection, schedule: Q04DX003 (ip), vehicle: saline 94 % of control

COC1=CC=C2C3Cc4ccc(OC)c(O)c4C2(C1)CN3C (stereo not given)
inactive: [2] 96 % of control

Cc1cccc(N=Nc2c(C)nc(N)nc2C)c1C
inactive: [2] 94 % of control | dose: 200.0 mg/kg/injection, schedule: Q04DX003 (ip), vehicle: other 96 % of control | dose: 400.0 mg/kg/injection, schedule: Q04DX003 (ip), vehicle: other 93 % of control

COc1cccc(CCNC(=O)CCC#N)c1
inactive: dose: 75.0 mg/kg/injection, schedule: Q01DX009 (ip), vehicle: saline 112 % of control | dose: 100.0 mg/kg/injection, schedule: Q04DX003 (ip), vehicle: Klucel (hydroxypropylcellulose) (HPC) 97 % of control | dose: 150.0 mg/kg/injection, schedule: Q01DX009 (ip), vehicle: saline 93 % of control | dose: 200.0 mg/kg/injection, schedule: Q04DX003 (ip), vehicle: Klucel (hydroxypropylcellulose) (HPC) 87 % of control | dose: 300.0 mg/kg/injection, schedule: Q01DX009 (ip), vehicle: saline 100 % of control | dose: 400.0 mg/kg/injection, schedule: Q04DX003 (ip), vehicle: Klucel (hydroxypropylcellulose) (HPC) 90 % of control

Nc1ccc2c(c1)oc1ccccc12
inactive: dose: 100.0 mg/kg/injection, schedule: Q04DX002 (ip), vehicle: Klucel (hydroxypropylcellulose) (HPC) 107 % of control | dose: 200.0 mg/kg/injection, schedule: Q04DX002 (ip), vehicle: Klucel (hydroxypropylcellulose) (HPC) 103 % of control | dose: 400.0 mg/kg/injection, schedule: Q04DX002 (ip), vehicle: Klucel (hydroxypropylcellulose) (HPC) 110 % of control
